Tests used:
[1] = molecular target: T1, Neuronal acetylcholine receptor subunit alpha-7 (Rattus norvegicus, UniProt Q05941); test: Agonist activity at rat alpha7 nAChR expressed in HEK293 cells co-expressing human RIC-3 assessed as increase in calcium flux measured for 2 mins by Fluo-4 AM dye based FLIPR assay; assay type: cell-based
[2] = molecular target: T2, 5-hydroxytryptamine receptor 3A (Homo sapiens, UniProt P46098); test: Antagonist activity at human 5-HT3A receptor expressed in HEK293 cells assessed as inhibition of 5-HT-induced calcium flux preincubated for 30 mins prior to 5-HT addition by Fluo-4 AM dye based FLIPR assay; assay type: cell-based
T2 sequence (P46098 whole entry): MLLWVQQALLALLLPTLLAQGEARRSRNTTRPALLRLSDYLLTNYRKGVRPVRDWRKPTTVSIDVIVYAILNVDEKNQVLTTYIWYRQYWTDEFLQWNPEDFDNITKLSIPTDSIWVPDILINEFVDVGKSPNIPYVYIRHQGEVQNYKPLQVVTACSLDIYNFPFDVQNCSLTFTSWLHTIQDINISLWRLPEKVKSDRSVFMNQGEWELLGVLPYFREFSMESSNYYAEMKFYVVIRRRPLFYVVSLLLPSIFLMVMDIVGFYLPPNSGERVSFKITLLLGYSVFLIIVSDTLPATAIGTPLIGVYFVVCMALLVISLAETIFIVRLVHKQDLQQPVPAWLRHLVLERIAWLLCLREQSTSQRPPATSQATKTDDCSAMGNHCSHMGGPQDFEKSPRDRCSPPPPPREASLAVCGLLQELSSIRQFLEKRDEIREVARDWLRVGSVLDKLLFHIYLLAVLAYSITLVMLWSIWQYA

[3] = Selectivity ratio of IC50 for human 5-HT3A receptor expressed in HEK293 cells to EC50 for rat alpha7 nAChR expressed in HEK293 cells; assay type: cell-based
[4] = molecular target: Neuronal acetylcholine receptor subunit alpha-7 (Homo sapiens, UniProt P36544); test: Binding affinity to human alpha7 nAChR
[5] = molecular target: T2, 5-hydroxytryptamine receptor 3A; test: Binding affinity to 5-HT3A receptor (unknown origin)
[6] = molecular target: T1, Neuronal acetylcholine receptor subunit alpha-7; test: Displacement of [125I]alpha-bungarotoxin from rat alpha7 nAChR expressed in HEK293 cell membranes after 2 hrs by topcount scintillation counting analysis
[7] = molecular target: Neuronal acetylcholine receptor; alpha3/beta4 (Rattus norvegicus, UniProt P04757+P12392); test: Agonist activity at rat alpha3beta4 nAChR expressed in HEK293 cells assessed as increase in calcium flux measured for 2 mins by Fluo-4-AM dye based FLIPR assay; assay type: cell-based
[8] = molecular target: Neuronal acetylcholine receptor; alpha4/beta2 (Rattus norvegicus, UniProt P09483+P12390); test: Agonist activity at rat alpha4beta2 nAChR expressed in HEK293 cells assessed as increase in calcium flux measured for 2 mins by Fluo-4-AM dye based FLIPR assay; assay type: cell-based
[9] = Agonist activity at rat alpha1beta1deltaepsilon nAChR expressed in HEK293 cells assessed as increase in calcium flux measured for 2 mins by Fluo-4-AM dye based FLIPR assay; assay type: cell-based; conditions: HEK293, 2 min

T1 sequence (Q05941 whole entry): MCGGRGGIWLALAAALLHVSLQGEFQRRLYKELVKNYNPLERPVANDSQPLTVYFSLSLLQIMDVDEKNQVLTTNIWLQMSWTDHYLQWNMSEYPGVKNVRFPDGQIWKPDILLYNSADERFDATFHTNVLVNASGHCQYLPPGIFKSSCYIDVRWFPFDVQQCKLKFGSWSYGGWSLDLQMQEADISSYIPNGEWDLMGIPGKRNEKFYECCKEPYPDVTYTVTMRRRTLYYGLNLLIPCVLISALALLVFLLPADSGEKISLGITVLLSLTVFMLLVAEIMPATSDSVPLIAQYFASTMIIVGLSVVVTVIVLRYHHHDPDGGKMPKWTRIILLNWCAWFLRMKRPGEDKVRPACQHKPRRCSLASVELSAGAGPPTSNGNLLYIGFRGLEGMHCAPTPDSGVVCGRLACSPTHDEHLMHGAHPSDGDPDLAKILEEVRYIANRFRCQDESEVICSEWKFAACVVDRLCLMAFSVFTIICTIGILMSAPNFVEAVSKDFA
Neuronal acetylcholine receptor subunit alpha-7 (Homo sapiens, UniProt P36544), sequence (P36544 whole entry): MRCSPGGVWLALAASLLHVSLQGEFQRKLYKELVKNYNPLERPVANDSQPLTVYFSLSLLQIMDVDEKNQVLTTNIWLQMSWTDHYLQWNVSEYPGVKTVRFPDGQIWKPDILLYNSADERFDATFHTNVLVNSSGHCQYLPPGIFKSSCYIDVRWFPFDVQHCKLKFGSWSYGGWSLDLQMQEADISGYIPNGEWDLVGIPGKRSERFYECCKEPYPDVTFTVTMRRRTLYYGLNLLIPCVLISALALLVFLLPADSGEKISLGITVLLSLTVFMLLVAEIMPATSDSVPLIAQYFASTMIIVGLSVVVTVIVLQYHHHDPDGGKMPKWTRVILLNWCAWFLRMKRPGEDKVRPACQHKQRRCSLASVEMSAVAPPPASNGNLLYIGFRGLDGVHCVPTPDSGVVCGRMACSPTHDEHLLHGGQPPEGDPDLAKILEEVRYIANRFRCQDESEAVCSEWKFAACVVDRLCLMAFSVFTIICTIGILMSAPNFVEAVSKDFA
Neuronal acetylcholine receptor; alpha4/beta2, sequence (P09483 whole entry): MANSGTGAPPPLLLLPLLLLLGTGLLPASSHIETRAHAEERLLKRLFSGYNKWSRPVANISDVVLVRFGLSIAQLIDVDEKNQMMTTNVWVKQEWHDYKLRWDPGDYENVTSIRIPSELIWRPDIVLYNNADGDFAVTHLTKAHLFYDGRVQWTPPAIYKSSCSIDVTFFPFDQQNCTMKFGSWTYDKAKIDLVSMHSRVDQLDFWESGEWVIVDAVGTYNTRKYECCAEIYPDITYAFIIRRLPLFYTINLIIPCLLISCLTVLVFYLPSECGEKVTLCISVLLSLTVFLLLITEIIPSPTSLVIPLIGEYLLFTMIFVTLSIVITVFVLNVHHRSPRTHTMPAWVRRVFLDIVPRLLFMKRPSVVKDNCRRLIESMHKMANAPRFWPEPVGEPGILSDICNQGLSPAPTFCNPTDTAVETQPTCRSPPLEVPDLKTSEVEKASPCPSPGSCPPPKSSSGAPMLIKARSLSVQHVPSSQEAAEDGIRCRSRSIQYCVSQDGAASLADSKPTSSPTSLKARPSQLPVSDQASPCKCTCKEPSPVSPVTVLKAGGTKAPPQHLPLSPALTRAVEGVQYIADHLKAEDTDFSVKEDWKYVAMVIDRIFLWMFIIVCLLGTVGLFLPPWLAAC
Neuronal acetylcholine receptor; alpha4/beta2, sequence (P12390 whole entry): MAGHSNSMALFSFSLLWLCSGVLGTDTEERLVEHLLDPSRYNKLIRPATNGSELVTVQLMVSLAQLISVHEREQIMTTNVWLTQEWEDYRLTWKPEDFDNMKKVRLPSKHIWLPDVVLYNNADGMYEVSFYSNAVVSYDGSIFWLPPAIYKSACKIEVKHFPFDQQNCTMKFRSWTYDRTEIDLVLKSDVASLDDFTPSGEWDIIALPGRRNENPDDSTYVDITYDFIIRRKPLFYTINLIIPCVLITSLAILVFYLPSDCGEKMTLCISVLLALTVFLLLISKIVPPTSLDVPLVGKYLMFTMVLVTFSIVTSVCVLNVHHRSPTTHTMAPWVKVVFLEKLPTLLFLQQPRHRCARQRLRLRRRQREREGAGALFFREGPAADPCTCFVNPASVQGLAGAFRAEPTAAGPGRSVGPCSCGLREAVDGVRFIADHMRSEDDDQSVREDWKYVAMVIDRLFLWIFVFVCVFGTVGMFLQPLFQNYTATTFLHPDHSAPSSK
Neuronal acetylcholine receptor; alpha3/beta4, sequence (P04757 whole entry): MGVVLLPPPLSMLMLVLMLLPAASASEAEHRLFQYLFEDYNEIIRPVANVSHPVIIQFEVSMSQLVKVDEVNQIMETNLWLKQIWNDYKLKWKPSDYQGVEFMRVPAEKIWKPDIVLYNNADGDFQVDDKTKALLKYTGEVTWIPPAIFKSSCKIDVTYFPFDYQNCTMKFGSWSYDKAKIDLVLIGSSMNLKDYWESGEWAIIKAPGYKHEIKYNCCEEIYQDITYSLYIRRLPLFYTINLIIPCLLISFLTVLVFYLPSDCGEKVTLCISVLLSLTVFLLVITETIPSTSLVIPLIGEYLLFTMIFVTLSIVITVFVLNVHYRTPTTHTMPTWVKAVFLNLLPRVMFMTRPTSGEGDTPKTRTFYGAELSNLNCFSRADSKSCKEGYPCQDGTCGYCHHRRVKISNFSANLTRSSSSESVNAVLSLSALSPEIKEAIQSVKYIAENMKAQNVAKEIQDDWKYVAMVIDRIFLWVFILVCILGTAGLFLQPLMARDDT
Neuronal acetylcholine receptor; alpha3/beta4, sequence (P12392 whole entry): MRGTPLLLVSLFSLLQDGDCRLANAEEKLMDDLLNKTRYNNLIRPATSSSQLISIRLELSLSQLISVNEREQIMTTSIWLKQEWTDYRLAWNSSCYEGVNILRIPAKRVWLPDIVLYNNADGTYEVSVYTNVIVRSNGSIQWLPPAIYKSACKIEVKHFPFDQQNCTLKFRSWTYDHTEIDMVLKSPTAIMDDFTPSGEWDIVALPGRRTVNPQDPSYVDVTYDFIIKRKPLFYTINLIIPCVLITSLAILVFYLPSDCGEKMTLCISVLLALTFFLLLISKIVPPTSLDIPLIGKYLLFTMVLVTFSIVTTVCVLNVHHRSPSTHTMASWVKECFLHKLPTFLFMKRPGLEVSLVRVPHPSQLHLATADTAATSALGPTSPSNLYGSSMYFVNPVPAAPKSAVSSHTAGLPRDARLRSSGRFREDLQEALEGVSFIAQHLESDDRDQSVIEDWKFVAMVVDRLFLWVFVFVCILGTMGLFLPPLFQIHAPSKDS

| SMILES | EC50 [1] [nM] | IC50 [2] [nM] | Ratio IC50/EC50 [3] | further results |
| --- | --- | --- | --- | --- |
| Brc1nc2n(c1Br)CC1(CN3CCC1CC3)O2 (racemic) | 32 | 62 | – | – |
| Brc1nc2n(c1Br)C[C@@]1(CN3CCC1CC3)O2 | 19 | 43 | – | – |
| COc1ccc(-c2cccc3c2nc2n3C[C@@]3(CN4CCC3CC4)O2)cc1 | 26 | 10400 | 400 | – |
| Cc1ccc2nc3n(c2c1)C[C@@]1(CN2CCC1CC2)O3 | 33 | 6 | 0.2 | – |
| c1ccc(-c2cnc3c(c2)C[C@@]2(CN4CCC2CC4)O3)cc1 | – | – | – | Ki [4]: 2 nM; Ki [5]: 2 nM |
| COc1ccc2c(c1)nc1n2C[C@@]2(CN3CCC2CC3)O1 | 7 | 11 | 1.6 | – |
| Clc1ccc2nc3n(c2c1)C[C@@]1(CN2CCC1CC2)O3 | 14 | 9 | 0.6 | – |
| c1cnc2c(c1)C[C@@]1(CN3CCC1CC3)O2 [AZD0328] | – | – | – | Ki [6]: 5 nM |
| FC(F)(F)c1ccc2nc3n(c2c1)C[C@@]1(CN2CCC1CC2)O3 | 69 | 17 | 0.25 | – |
| Clc1cccc2nc3n(c12)C[C@@]1(CN2CCC1CC2)O3 | 268 | 11 | 0.04 | – |
| Clc1cccc2c1nc1n2C[C@@]2(CN3CCC2CC3)O1 | 16 | 4 | 0.3 | – |
| c1ccc2c(c1)nc1n2C[C@@]2(CN3CCC2CC3)O1 | 11 | 15 | 1.4 | EC50 [7]: > 100000 nM; EC50 [8]: > 100000 nM; EC50 [9]: > 100000 nM |
| Clc1ccc2c(c1)nc1n2C[C@@]2(CN3CCC2CC3)O1 | 31 | 6 | 0.2 | – |
| c1ccc2c(c1)nc1n2C[C@]2(CN3CCC2CC3)O1 | 6400 | 13000 | 2 | – |
| Cc1ccc2c(c1)nc1n2C[C@@]2(CN3CCC2CC3)O1 | 5 | 13 | 2.6 | – |
| FC(F)(F)c1cccc2c1nc1n2C[C@@]2(CN3CCC2CC3)O1 | 22 | 11 | 0.5 | – |
| Brc1nc2n(c1Br)C[C@]1(CN3CCC1CC3)O2 | 4030 | 9700 | – | – |
| Cc1cccc2c1nc1n2C[C@@]2(CN3CCC2CC3)O1 | 7 | 7 | 1 | – |
| FC(F)(F)c1ccc2c(c1)nc1n2C[C@@]2(CN3CCC2CC3)O1 | 13 | 660 | 51 | – |

— ChEMBL document CHEMBL4177618, “Design and synthesis of a novel series of (1'S,2R,4'S)-3H-4'-azaspiro[benzo[4,5]imidazo[2,1-b]oxazole-2,2'-bicyclo[2.2.2]octanes] with high affinity for the α7 neuronal nicotinic receptor” (Bioorg Med Chem Lett, 2017)
